Common to all, as to assay type: cell-based
One experiment concerns the target T1, human TLR7 (Homo sapiens, UniProt Q9NYK1).
T1 construct: host or cells: HEK-Blue cells
T1 sequence (Q9NYK1 27-1049): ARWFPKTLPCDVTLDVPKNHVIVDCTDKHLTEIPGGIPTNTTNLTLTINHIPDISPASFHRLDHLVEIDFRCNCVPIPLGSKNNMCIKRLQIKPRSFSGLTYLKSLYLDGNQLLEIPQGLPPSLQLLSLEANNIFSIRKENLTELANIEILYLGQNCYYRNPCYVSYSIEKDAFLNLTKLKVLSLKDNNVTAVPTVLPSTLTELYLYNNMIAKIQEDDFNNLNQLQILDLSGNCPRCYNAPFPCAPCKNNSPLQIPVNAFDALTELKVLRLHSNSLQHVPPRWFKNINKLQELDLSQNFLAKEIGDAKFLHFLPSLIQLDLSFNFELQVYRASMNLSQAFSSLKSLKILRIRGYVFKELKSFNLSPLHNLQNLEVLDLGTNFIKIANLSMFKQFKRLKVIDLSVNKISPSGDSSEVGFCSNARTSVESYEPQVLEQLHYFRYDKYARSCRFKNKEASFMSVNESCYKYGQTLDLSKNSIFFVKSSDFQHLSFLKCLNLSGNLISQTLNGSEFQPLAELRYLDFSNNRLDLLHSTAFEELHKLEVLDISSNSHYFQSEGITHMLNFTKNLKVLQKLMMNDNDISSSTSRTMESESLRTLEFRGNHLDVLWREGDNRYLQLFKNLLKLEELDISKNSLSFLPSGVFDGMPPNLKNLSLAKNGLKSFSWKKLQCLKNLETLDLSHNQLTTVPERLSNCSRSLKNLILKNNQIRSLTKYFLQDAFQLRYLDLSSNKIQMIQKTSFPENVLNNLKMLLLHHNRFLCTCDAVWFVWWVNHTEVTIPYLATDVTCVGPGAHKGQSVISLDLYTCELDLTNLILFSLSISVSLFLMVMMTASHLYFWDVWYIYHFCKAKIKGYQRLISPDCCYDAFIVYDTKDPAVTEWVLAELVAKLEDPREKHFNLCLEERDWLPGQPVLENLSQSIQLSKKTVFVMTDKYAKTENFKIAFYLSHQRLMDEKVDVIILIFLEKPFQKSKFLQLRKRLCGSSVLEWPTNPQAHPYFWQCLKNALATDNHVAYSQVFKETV
Briefly: TLR7 inhibition reporter assay (HEK-Blue SEAP reporter, gardiquimod stimulation). Particulars: HEK-Blue cells overexpressing human TLR7, SEAP reporter, gardiquimod 7.5 μM, 22 hour incubation. In a few lines: (§1)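 Screening used HEK-Blue cells overexpressing one human TLR (7, 8 or 9) and an IFN-β minimal promoter–NF-κB/AP-1 SEAP construct. Stimulation lasted 22 h at 37 °C with receptor-specific agonist: gardiquimod, R848 or ODN2006 at 7.5 μM, 15.9 μM and 5 nM.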
For orientation: In a reporter assay the amount or activity of a reporter protein is the signal.

The target of another experiment is T2, human TLR8 (Homo sapiens, UniProt Q9NR97).
T2 construct: host or cells: HEK-Blue cells
T2 sequence (Q9NR97 27-1041): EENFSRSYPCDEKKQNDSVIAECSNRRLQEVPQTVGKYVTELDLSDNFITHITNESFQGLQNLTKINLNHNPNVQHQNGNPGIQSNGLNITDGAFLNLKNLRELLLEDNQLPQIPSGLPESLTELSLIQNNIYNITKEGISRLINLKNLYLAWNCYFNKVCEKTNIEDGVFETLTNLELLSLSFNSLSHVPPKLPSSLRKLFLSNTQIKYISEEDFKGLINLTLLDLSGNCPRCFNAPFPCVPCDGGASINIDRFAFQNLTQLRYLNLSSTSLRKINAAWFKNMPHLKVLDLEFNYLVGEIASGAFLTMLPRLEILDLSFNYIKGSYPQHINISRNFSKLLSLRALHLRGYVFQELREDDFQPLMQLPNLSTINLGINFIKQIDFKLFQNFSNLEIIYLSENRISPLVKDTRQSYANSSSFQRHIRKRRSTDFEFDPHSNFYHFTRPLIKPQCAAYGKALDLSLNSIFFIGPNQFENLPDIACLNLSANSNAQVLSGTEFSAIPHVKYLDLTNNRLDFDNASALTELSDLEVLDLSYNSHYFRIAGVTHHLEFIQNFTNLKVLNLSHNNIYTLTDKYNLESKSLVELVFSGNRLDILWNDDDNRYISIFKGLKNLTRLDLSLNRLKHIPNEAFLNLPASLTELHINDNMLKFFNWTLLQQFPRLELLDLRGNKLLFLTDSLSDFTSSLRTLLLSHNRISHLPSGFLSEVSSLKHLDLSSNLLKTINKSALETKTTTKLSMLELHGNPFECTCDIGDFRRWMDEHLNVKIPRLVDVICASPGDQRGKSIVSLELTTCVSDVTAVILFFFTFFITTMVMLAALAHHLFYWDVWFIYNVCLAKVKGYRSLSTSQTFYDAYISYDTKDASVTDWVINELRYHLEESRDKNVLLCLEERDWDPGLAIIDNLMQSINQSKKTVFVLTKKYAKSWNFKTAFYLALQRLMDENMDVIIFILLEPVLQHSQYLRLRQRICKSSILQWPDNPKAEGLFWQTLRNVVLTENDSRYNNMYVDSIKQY
Put plainly: TLR8 inhibition reporter assay (HEK-Blue SEAP reporter, R848 stimulation). Particulars: HEK-Blue cells overexpressing human TLR8, SEAP reporter, R848 15.9 μM, 22 hour incubation. In a few lines:
as §1

A further experiment addresses T3, human TLR9 (Homo sapiens, UniProt Q9NR96).
T3 construct: host or cells: HEK-Blue cells
T3 sequence (Q9NR96 26-1032): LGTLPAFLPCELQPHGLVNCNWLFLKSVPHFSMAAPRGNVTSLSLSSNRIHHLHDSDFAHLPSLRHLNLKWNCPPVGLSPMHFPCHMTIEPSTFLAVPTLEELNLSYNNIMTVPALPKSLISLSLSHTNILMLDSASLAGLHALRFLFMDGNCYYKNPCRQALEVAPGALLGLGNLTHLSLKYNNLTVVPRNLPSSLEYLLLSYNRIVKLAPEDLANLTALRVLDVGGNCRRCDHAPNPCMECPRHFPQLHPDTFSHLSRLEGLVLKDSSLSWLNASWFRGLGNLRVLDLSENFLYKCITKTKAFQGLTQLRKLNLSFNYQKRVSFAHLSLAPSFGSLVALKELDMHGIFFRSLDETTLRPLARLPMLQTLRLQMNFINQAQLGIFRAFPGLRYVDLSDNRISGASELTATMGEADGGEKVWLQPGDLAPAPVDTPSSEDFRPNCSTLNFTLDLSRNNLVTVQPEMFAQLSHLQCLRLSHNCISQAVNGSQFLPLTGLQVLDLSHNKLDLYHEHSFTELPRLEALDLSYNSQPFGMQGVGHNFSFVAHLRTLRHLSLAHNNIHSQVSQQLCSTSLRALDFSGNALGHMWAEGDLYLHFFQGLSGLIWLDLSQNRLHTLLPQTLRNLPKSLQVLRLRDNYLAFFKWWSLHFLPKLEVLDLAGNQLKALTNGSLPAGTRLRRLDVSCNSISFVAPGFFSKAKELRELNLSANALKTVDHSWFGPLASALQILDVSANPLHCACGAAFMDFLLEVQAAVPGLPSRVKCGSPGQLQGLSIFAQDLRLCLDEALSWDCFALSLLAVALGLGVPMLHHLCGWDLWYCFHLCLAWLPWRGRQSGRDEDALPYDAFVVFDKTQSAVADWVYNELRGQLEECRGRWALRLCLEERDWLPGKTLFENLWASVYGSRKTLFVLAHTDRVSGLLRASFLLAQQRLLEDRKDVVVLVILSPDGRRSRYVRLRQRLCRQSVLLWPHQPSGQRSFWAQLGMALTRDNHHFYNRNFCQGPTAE
Briefly: TLR9 inhibition reporter assay (HEK-Blue SEAP reporter, ODN2006 stimulation). Conditions: HEK-Blue cells overexpressing human TLR9, SEAP reporter, ODN2006 5 nM, 22 hour incubation. In a few lines: as §1

In general, IC50 refers to the concentration at which inhibition is half-maximal. `Cc1nc(-c2[nH]c3ccc(C4CCN(C)CC4)cc3c2C(C)C)cn(C)c1=O` [Example 183, 5-(3-isopropyl-5-(1-methylpiperidin-4-yl)-1H-indol-2-yl)-1,3-dimethylpyrazin-2(1H)-one]: the values for the half-maximal inhibitory concentration (IC50) against human TLR7, at human TLR8 and against human TLR9 were 28.5 nM, 31.4 nM and 9650 nM, respectively.
`CC(C)c1c(-c2cc(-c3cncnc3)c(=O)n(C)c2)[nH]c2ccc(C3CCN(C)CC3)cc12` [Example 246, 5-(3-isopropyl-5-(1-methylpiperidin-4-yl)-1H-indol-2-yl)-1-methyl-3-(pyrimidin-5-yl)pyridin-2(1H)-one]: the 50% inhibitory concentration (IC50) against human TLR7 came to 2.9 nM; against human TLR8 it was 1.7 nM; on human TLR9 it was 387 nM.
Regarding `Cc1cc(-c2[nH]c3ccc(C4CCN(C5CCOCC5)CC4)cc3c2C(C)C)c(C)n(C)c1=O` [Example 210, 5-(3-isopropyl-5-(1-(tetrahydro-2H-pyran-4-yl)piperidin-4-yl)-1H-indol-2-yl)-1,3,6-trimethylpyridin-2(1H)-one], the IC50 against human TLR7 is 24.7 nM; against human TLR8, 2.7 nM; against human TLR9, 5030 nM.
For `Cc1c(-c2[nH]c3ccc(C4CCN(C5CCOCC5)CC4)cc3c2C(C)C)cc(C#N)c(=O)n1C` [Example 220, 5-(3-isopropyl-5-(1-(tetrahydro-2H-pyran-4-yl)piperidin-4-yl)-1H-indol-2-yl)-1,6-dimethyl-2-oxo-1,2-dihydropyridine-3-carbonitrile] the same measures were 24.5 nM, 1.4 nM and 2780 nM.
For `Cc1cc(-c2[nH]c3ccc(C4CCN(CC5CC5(F)F)CC4)cc3c2C(C)C)cn(C)c1=O` (stereo not drawn) [Example 83, 5-(5-(1-((2,2-difluorocyclopropyl)methyl)piperidin-4-yl)-3-isopropyl-1H-indol-2-yl)-1,3-dimethylpyridin-2(1H)-one] the same measures were 3.9 nM, 1.2 nM and 7140 nM.
For `Cc1cc(-c2[nH]c3ccc(C4CCNCC4)cc3c2C(C)C)cn(CCO)c1=O` [Example 30, 1-(2-hydroxyethyl)-5-(3-isopropyl-5-(piperidin-4-yl)-1H-indol-2-yl)-3-methylpyridin-2(1H)-one] the same measures were 8.4 nM, 10.1 nM and 2390 nM.
Take `Cc1cc(-c2[nH]c3ccc(C4CCN(CCC#N)CC4)cc3c2C(C)C)cn(C)c1=O` [Example 76, 3-(4-(2-(1,5-dimethyl-6-oxo-1,6-dihydropyridin-3-yl)-3-isopropyl-1H-indol-5-yl)piperidin-1-yl)propanenitrile]: the IC50 is 4.4 nM on human TLR7, 4.7 nM against human TLR8 and 19900 nM against human TLR9.
`COc1cc(-c2[nH]c3ccc(C4CCN(CC(=O)N(C)C)CC4)cc3c2C(C)C)c(C)n(C)c1=O` [Example 143, 2-(4-(3-isopropyl-2-(5-methoxy-1,2-dimethyl-6-oxo-1,6-dihydropyridin-3-yl)-1H-indol-5-yl)piperidin-1-yl)-N,N-dimethylacetamide]: the values for the concentration for half-maximal inhibition (IC50) at human TLR7, at human TLR8 and against human TLR9 were 413 nM, 99.7 nM and 2720 nM, respectively.
In the case of `Cc1cc(-c2[nH]c3ccc(C4CCN(CCCC(F)(F)F)CC4)cc3c2C(C)C)cn(Cc2ccccc2)c1=O` [Example 111, 1-benzyl-5-(3-isopropyl-5-(1-(4,4,4-trifluorobutyl)piperidin-4-yl)-1H-indol-2-yl)-3-methylpyridin-2(1H)-one], the values for the IC50 on human TLR7, against human TLR8 and against human TLR9 were 48 nM, 157 nM and 3060 nM, respectively.
For the compound `Cc1cc(-c2[nH]c3ccc(C4CCN(Cc5ncnn5C)CC4)cc3c2C(C)C)cn(C)c1=O` [Example 198, 5-(3-isopropyl-5-(1-((1-methyl-1H-1,2,4-triazol-5-yl)methyl)piperidin-4-yl)-1H-indol-2-yl)-1,3-dimethylpyridin-2(1H)-one], the 50% inhibitory concentration (IC50) against human TLR7 is 9.1 nM; on human TLR8, 13.4 nM; at human TLR9 it was not below 50000 nM.
`CC(C)c1c(-c2ccc(=O)n(C)c2)[nH]c2ccc(C3CCN(CC(=O)N(C)C)CC3)cc12` [Example 114, 2-(4-(3-isopropyl-2-(1-methyl-6-oxo-1,6-dihydropyridin-3-yl)-1H-indol-5-yl)piperidin-1-yl)-N,N-dimethylacetamide]: the IC50 came to 42.9 nM against human TLR7, 43.6 nM against human TLR8 and 10400 nM at human TLR9.
Turning to `Cc1c(-c2[nH]c3ccc(C4CCN(CCC(F)(F)F)CC4)cc3c2C(C)C)cn(C)c(=O)c1Cl` [Example 102, 3-chloro-5-(3-isopropyl-5-(1-(3,3,3-trifluoropropyl)piperidin-4-yl)-1H-indol-2-yl)-1,4-dimethylpyridin-2(1H)-one], the values for the IC50 against human TLR7, on human TLR8 and on human TLR9 were 33.2 nM, 32.4 nM and not below 50000 nM, respectively.
The corresponding values for `Cc1c(-c2[nH]c3ccc(C4CCNCC4)cc3c2C(C)C)nn(C)c(=O)c1C` [Example 17, 6-(3-isopropyl-5-(piperidin-4-yl)-1H-indol-2-yl)-2,4,5-trimethylpyridazin-3(2H)-one] are 21.1 nM, 12.2 nM and 597 nM.

For the origin of these results see US11447466B2, “Substituted indole compounds useful as inhibitors of TLR7/8/9” (BRISTOL-MYERS SQUIBB COMPANY, priority 2017, dated 2022).
